Results as given in ChEMBL document CHEMBL5543172, “Novel Isoalantolactone-Based Derivatives as Potent NLRP3 Inflammasome Inhibitors: Design, Synthesis, and Biological Characterization” (J Med Chem, 2024).

What was measured:
[1] = Metabolic stability in human liver microsomes assessed as half life preincubated for 5 mins followed by NADPH addition and measured upto 60 mins by LC-MS/MS analysis; format: ADME, Microsome; conditions: time < 65 min
[2] = Metabolic stability in mouse liver microsomes assessed as half life preincubated for 5 mins followed by NADPH addition and measured upto 60 mins by LC-MS/MS analysis; format: ADME, Microsome; conditions: time < 65 min
[3] = Drug distribution in C57BL/6 mouse colon at 30 mg/kg, ip measured after 2 hrs by LC-MS/MS analysis; format: ADME, organism-based; conditions: read-out: Drug uptake
[4] = Cmax in male C57BL/6 mouse at 30 mg/kg, ip measured upto 1440 mins by LC-MS/MS analysis; format: ADME, organism-based; conditions: in vivo
[5] = Apparent oral clearance in male C57BL/6 mouse at 30 mg/kg, ip measured upto 1440 mins by LC-MS/MS analysis; format: ADME, organism-based; conditions: in vivo, read-out: CLz/F (converted)
[6] = AUC (0 to t) in male C57BL/6 mouse at 30 mg/kg, ip measured upto 1440 mins by LC-MS/MS analysis; format: ADME, organism-based; conditions: in vivo
[7] = Drug distribution in C57BL/6 mouse plasma at 30 mg/kg, ip measured after 0.5 hrs by LC-MS/MS analysis; format: ADME, organism-based
[8] = MRT (0 to t) in male C57BL/6 mouse at 30 mg/kg, ip measured upto 1440 mins by LC-MS/MS analysis; format: ADME, organism-based; conditions: in vivo
[9] = Drug distribution in C57BL/6 mouse colon at 30 mg/kg, ip measured after 24 hrs by LC-MS/MS analysis; format: ADME, organism-based; conditions: read-out: Drug uptake
[10] = Tmax in male C57BL/6 mouse at 30 mg/kg, ip measured upto 1440 mins by LC-MS/MS analysis; format: ADME, organism-based; conditions: in vivo
[11] = Drug distribution in C57BL/6 mouse plasma at 30 mg/kg, ip measured after 2 hrs by LC-MS/MS analysis; format: ADME, organism-based
[12] = Half life in male C57BL/6 mouse at 30 mg/kg, ip measured upto 1440 mins by LC-MS/MS analysis; format: ADME, organism-based; conditions: in vivo
[13] = Drug distribution in C57BL/6 mouse colon at 30 mg/kg, ip measured after 0.5 hrs by LC-MS/MS analysis; format: ADME, organism-based; conditions: read-out: Drug uptake
[14] = Drug distribution in C57BL/6 mouse colon at 30 mg/kg, ip measured after 8 hrs by LC-MS/MS analysis; format: ADME, organism-based; conditions: read-out: Drug uptake

C=C1C(=O)O[C@@H]2C[C@@]3(C)CC[C@@H](OC(=O)/C=C/C(=O)c4ccc(F)cc4)C(=C)[C@@H]3C[C@H]12 gave a half-life [1] of 31.1 min and a half-life [2] of 44.1 min.
With C=C1C(=O)O[C@@H]2C[C@@]3(C)CC[C@@H](OC(=O)/C=C/C(=O)c4ccccc4)C(=C)[C@@H]3C[C@H]12 the half-life [1] was 10.4 min and the half-life [2] was 19.2 min.
Compound C=C1C(=O)O[C@@H]2C[C@@]3(C)CC[C@@H](OC(=O)/C=C/C(=O)c4ccc(C(F)(F)F)cc4)C(=C)[C@@H]3C[C@H]12 has a half-life [1] of 20.6 min and a half-life [2] of 27.2 min.
C=C1C(=O)O[C@@H]2C[C@@]3(C)CCCC(=C)[C@@H]3C[C@H]12 [ISOALANTOLACTONE] gave a concentration at 2 h [3] of 293 ng/g, a Cmax [4] of 159 ng/mL and a half-life [1] of 4.47 min. The CL/F [5] was 2020 mL/min/kg, the AUC(0-t) at 24 h [6] was 230 ng·h/mL and the concentration at 0.5 h [7] was 27.4 ng/mL. The MRT last at 24 h [8] was 110 min, the concentration at 24 h [9] was 26.9 ng/g and the half-life [2] was 9.1 min. The Tmax [10] was 13.2 min, the concentration at 2 h [11] was 7.71 ng/mL and the half-life [12] was 127 min. For the same compound, the concentration at 0.5 h [13] was 3320 ng/g and the concentration at 8 h [14] was 3120 ng/g.
C=C1C(=O)O[C@@H]2C[C@@]3(C)CC[C@@H](OC(=O)c4c(Cl)ccnc4Cl)C(=C)[C@@H]3C[C@H]12 showed a half-life [1] of 118 min and a half-life [2] of 47.1 min.
C=C1C(=O)O[C@@H]2C[C@@]3(C)CC[C@@H](OC(=O)c4cc(Cl)cnc4Cl)C(=C)[C@@H]3C[C@H]12 gave a half-life [1] of 95.7 min and a half-life [2] of 12.6 min.
